This assay deals with PMA-differentiated THP-1 cells. Nature of the assay: IL-1β production in PMA-differentiated THP-1 cells stimulated with gramicidin (hTHP-1 assay containing 2% fetal bovine serum; Procedures 1 and 2). The assay is classed as cell-based, human. The settings on record: 2% fetal bovine serum. In outline: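 PMA 20 ng/ml 16-18 h → trypsinise → 50,000 cells/well, RPMI/2% FBS; cpd 1 h (11-pt, 100–0.0017 μM; DMSO 0.37%); gramicidin 5 μM, 2 h; spin; supernatant IL-1β via HTRF.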

Where [1] appears, read: Homo sapiens, THP-1, Table B2, class symbols, read-out: hTHP-1 IC50.
[2] abbreviates: Table B2, class symbols, read-out: hTHP-1 IC50.
[3] abbreviates: Table B1, class symbols, read-out: Average IC50 of compounds in hTHP-1 assay: hTHP-1 IC50.
The mark [4] stands for this setting: Homo sapiens, THP-1, Table B2, numeric bounds, read-out: hTHP-1 IC50.
The mark [5] stands for this setting: Homo sapiens, THP-1, Table B3, hTHP-1 assay, class symbols, read-out: IC50.

Read-outs that look alike come from different tables or passages of the source. Bounds are passed on as bounds.

Consider `Cc1c(C(F)(F)F)nc2c(c1NC(=O)N=S(N)(=O)c1sc(C(C)(C)O)cc1F)CCC2` (stereo not drawn) [Compound 632, 3-Fluoro-5-(2-hydroxypropan-2-yl)-N′-((3-methyl-2-(trifluoromethyl)-6,7-dihydro-5H-cyclopenta[b]pyridin-4-yl)carbamoyl)thiophene-2-sulfonimidamide], for which, under setting [1], the IC50 was in the range of 200 to 1000 nM. As for `CC1(C)CCc2c1nc1c(c2NC(=O)N=S(N)(=O)c2sc(C(C)(O)CO)cc2F)CCC1` (single isomer, unassigned) [Compound 640b, (S, R) and (R, R) or (R, S) and (S, S)-5-(1,2-Dihydroxypropan-2-yl)-N′-((3,3-dimethyl-1,2,3,5,6,7-hexahydrodicyclopenta [b,e]pyridin-8-yl)carbamoyl)-3-fluorotliophene-2-sulfonimidamide], the IC50 under setting [2] fell in the range of 40 to 200 nM. On to `CC1CCc2c1nc1c(c2NC(=O)N=S(N)(=O)c2ccc(CN(C)C)cc2)CCC1` (single isomer, unassigned) [Compound 134bb, (R,S) or (R,R)-4-((dimethyl-amino)methyl)-N′-((3-methyl-1,2,3,5,6,7-hexa-hydrodicyclo-penta[b,e]pyridin-8-yl)carbamoyl)benzene-sulfonamidamide], for which, under setting [3], the half-maximal inhibitory concentration (IC50) lay within 5000 to 30000 nM.

`NS(=O)(=NC(=O)Nc1c2c(nc(C3CC3)c1C1CC1)CCC2)c1nn(C(F)F)cc1F` (single isomer, unassigned) [Example 764, (S) or (R)-N′-((2,3-dicyclopropyl-6,7-dihydro-5H-cyclopenta[b]pyridin-4-yl)carbamoyl)-1-(difluoromethyl)-4-fluoro-1H-pyrazole-3-sulfonimidamide]: the IC50 (Table B4, class symbols, read-out: hTHP-1 IC50) lay within 5000 to 30000 nM.

`CC(C)(O)c1ncc(S(N)(=O)=NC(=O)Nc2c3c(nc4c2CCC4F)CCC3)s1` (single isomer, unassigned) [Compound 183b, (S,S) or (S,R)-N′-((3-fluoro-1,2,3,5,6,7-hexahydrodicyclo-penta[b,e]pyridin-8-yl)carbamoyl)-2-(2-hydroxypropan-2-yl)thiazole-5-sulfonimidamide]: the IC50 (Homo sapiens, THP-1, Table B1, numeric bounds, read-out: Average IC50 of compounds in hTHP-1 assay: hTHP-1 IC50) is more than 30000 nM.

With `CCc1c(C2CC2)nc2c(c1NC(=O)N=S(N)(=O)c1cnc(C(C)(C)O)s1)CCC2` (single isomer, unassigned) [Compound 675b, (S) or (R)-N′-((2-cyclopropyl-3-ethyl-6,7-dihydro-5H-cyclopenta[b]pyridin-4-yl)carbamoyl)-2-(2-hydroxypropan-2-yl)thiazole-5-sulfonimidamide], the half-inhibitory concentration (IC50) under setting [2] lay in the range of 5000 to 30000 nM. As for `CC1(C)CCc2c1nc1c(c2NC(=O)N=S(N)(=O)c2ccn(-c3ccccc3)n2)CCC1` (stereo not drawn) [Compound 659, N′-((3,3-dimethyl-1,2,3,5,6,7-hexahydrodicyclopenta[b,e]pyridin-8-yl)carbamoyl)-1-phenyl-1H-pyrazole-3-sulfonimidamide], the half-maximal inhibitory concentration (IC50) under setting [1] lay in the range of 1000 to 5000 nM. The same measure, in the same setting: then `CC(C)(CO)c1ncc(S(N)(=O)=NC(=O)Nc2c3c(nc4c2CCC4(C)C)CCC3)s1` (stereo not drawn) [Compound 737], with 200 to 1000 nM. `CC(C)c1c(-c2ccccc2)nc2c(c1NC(=O)N=S(N)(=O)c1cnc(C(C)(C)O)s1)CCC2` (single isomer, unassigned) [Compound 145b, (S) or (R)-2-(2-hydroxy-propan-2-yl)-N′-((3-isopropyl-2-phenyl-6,7-dihydro-5H-cyclopenta[b]pyridin-4-yl)carbamoyl)thiazole-5-sulfonimidamide]: the 50% inhibitory concentration (IC50) under setting [3] lay within 1000 to 5000 nM. For the molecule `C[C@@H]1CCc2c1nc1c(c2NC(=O)N=S(N)(=O)c2cc(F)c(C(C)(C)O)s2)CCC1` (single isomer, unassigned) [Compound 616a, (R) or (S)-4-Fluoro-5-(2-hydroxypropan-2-yl)-N′-(((R)-3-methyl-1,2,3,5,6,7-hexahydrodicyclopenta [b,e]pyridin-8-yl)carbamoyl) thiophene-2-sulfonimidamide], the IC50 under setting [2] was 40 to 200 nM. In the case of `CC(C)(O)c1ccc(S(N)(=O)=NC(=O)Nc2c3c(nc4c2CCC4(C)C)CCC3)cn1` (single isomer, unassigned) [Compound 673a, (R) or (S)-N′-((3,3-dimethyl-1,2,3,5,6,7-hexahydrodicyclopenta [b,e]pyridin-8-yl)carbamoyl)-6-(2-hydroxypropan-2-yl)pyridine-3-sulfonimidamide], under setting [1], the concentration for half-maximal inhibition (IC50) is 1000 to 5000 nM.

Take `CCn1ccc(S(N)(=O)=NC(=O)Nc2c3c(nc4c2CCC4(C)C)CCC3)n1` (stereo not drawn) [Compound 603, N′-((3,3-dimethyl-1,2,3,5,6,7-hexahydrodicyclopenta[b,e]pyridin-8-yl)carbamoyl)-1-ethyl-1H-pyrazole-3-sulfonimidamide]: under setting [1], the half-inhibitory concentration (IC50) lay in the range of 40 to 200 nM.

Turning to `CC1CCc2c1nc1c(c2NC(=O)N=S(N)(=O)c2cn(C(C)C)cn2)CCC1` (single isomer, unassigned) [Compound 660c, (S, R) or (R, S) or (S, S) or (R, R)-1-Isopropyl-N′-((3-methyl-1,2,3,5,6,7-hexahydrodicyclopenta [b,e]pyridin-8-yl)carbamoyl)-1H-imidazole-4-sulfonimidamide], under setting [4], the concentration for half-maximal inhibition (IC50) is more than 30000 nM. Consider `Cc1c(C2CC2)nc2c(c1NC(=O)N=S(N)(=O)c1cc(C(C)(C)O)cs1)CCC2C` (single isomer, unassigned) [Compound 656d, (R, S) or (R, R) or (S, R) or (S, S)-N′-((2-Cyclopropyl-3,7-dimethyl-6,7-dihydro-5H-cyclopenta[b]pyridin-4-yl)carbamoyl)-4-(2-hydroxypropan-2-yl)thiophene-2-sulfonimidamide], for which, under setting [2], the IC50 was 1000 to 5000 nM. For the molecule `Cc1c(C2CC2)nc2c(c1NC(=O)N=S(N)(=O)c1cc(C(C)(C)O)n(-c3ccccc3)n1)CCC2` (stereo not drawn) [Compound 651, N′-((2-cyclopropyl-3-methyl-6,7-dihydro-5H-cyclopenta[b]pyridin-4-yl)carbamoyl)-5-(2-hydroxypropan-2-yl)-1-phenyl-1H-pyrazole-3-sulfonimidamide], the half-maximal inhibitory concentration (IC50) under setting [1] fell in the range of 5000 to 30000 nM. For `CCn1cc(F)c(S(N)(=O)=NC(=O)Nc2c3c(nc4c2CCC4(C)C)CCC3)n1` (stereo not drawn) [Example 638, N′-((3,3-dimethyl-1,2,3,5,6,7-hexahydrodicyclopenta[b,e]pyridin-8-yl)carbamoyl)-1-ethyl-4-fluoro-1H-pyrazole-3-sulfonimidamide], the IC50 under setting [5] was in the range of 8 to 40 nM. Same read-out and setting: the same measure for `CC1(C)CCc2c1nc1c(c2NC(=O)N=S(N)(=O)c2nn(C(F)F)cc2F)CCC1` (stereo not drawn) [Example 621, 1-(Difluoromethyl)-N′-((3,3-dimethyl-1,2,3,5,6,7-hexahydrodicyclopenta[b,e]pyridin-8-yl)carbamoyl)-4-fluoro-1H-pyrazole-3-sulfonimidamide]: 40 to 200 nM. With `CCn1cc(F)c(S(N)(=O)=NC(=O)Nc2c(C)c(C(F)(F)F)nc3c2CCC3)n1` (single isomer, unassigned) [Example 650, (S) or (R)-1-ethyl-4-fluoro-N′-((3-methyl-2-(trifluoromethyl)-6,7-dihydro-5H-cyclopenta[b]pyridin-4-yl)carbamoyl)-1H-pyrazole-3-sulfonimidamide], the IC50 (Table B3, hTHP-1 assay, class symbols, read-out: IC50) lay in the range of 1000 to 5000 nM.

`CCn1ccc(S(N)(=O)=NC(=O)Nc2c3c(nc4c2CCC4(C)C)CCC3)n1` (single isomer, unassigned) [Compound 697b, (R) or (S)-N′-((3,3-dimethyl-1,2,3,5,6,7-hexahydrodicyclopenta [b,e]pyridin-8-yl)carbamoyl)-1-ethyl-1H-pyrazole-3-sulfonimidamide]: the IC50 under setting [2] lay in the range of 40 to 200 nM. In the case of `CC1(C)CCc2c1nc1c(c2NC(=O)N=S(N)(=O)c2cc(CO)n(CCO)n2)CCC1` (stereo not drawn) [Example 626, N′-((3,3-dimethyl-1,2,3,5,6,7-hexahydrodicyclopenta[b,e]pyridin-8-yl)carbamoyl)-1-(2-hydroxyethyl)-5-(hydroxymethyl)-1H-pyrazole-3-sulfonimidamide], the IC50 under setting [5] fell in the range of 200 to 1000 nM. Turning to `CC(C)c1cc(C#N)nc(C(C)C)c1NC(=O)NS(=N)(=O)c1sc(C(C)(C)O)nc1CO` (stereo not drawn) [Compound 696, N-((6-cyano-2,4-diisopropylpyridin-3-yl)carbamoyl)-4-(hydroxymethyl)-2-(2-hydroxypropan-2-yl)thiazole-5-sulfonimidamide], the IC50 under setting [1] was 5000 to 30000 nM. On to `Cc1c(C(C)C)nc2c(c1NC(=O)N=S(N)(=O)c1ccn(C(C)C)n1)CCC2` (single isomer, unassigned) [Compound 644a, (S) or (R)-1-Isopropyl-N′-((2-isopropyl-3-methyl-6,7-dihydro-5H-cyclopenta[b]pyridin-4-yl)carbamoyl)-1H-pyrazole-3-sulfonimidamide], for which the half-inhibitory concentration (IC50) under setting [4] was more than 30000 nM. Turning to `C[C@@H]1CCc2c1nc1c(c2NC(=O)N=S(N)(=O)c2cc(F)c(C(C)(C)O)s2)CCC1` (stereo partly drawn) [Compound 616, 4-Fluoro-5-(2-hydroxypropan-2-yl)-N′-(((R)-3-methyl-1,2,3,5,6,7-hexahydrodicyclopenta[b,e]pyridin-8-yl)carbamoyl)thiophene-2-sulfonimidamide], the 50% inhibitory concentration (IC50) under setting [1] fell in the range of 40 to 200 nM. Regarding `NS(=O)(=NC(=O)Nc1c2c(nc3c1CCC31CC1)CCC2)c1ccn(CCO)n1` (stereo not drawn) [Example 622, 1-(2-Hydroxyethyl)-N′-((1′,5′,6′,7′-tetrahydro-2′H-spiro[cyclopropane-1,3′-dicyclopenta[b,e]pyridin]-8′-yl)carbamoyl)-1H-pyrazole-3-sulfonimidamide], the IC50 under setting [5] lay in the range of 1000 to 5000 nM.

In general, IC50 refers to the concentration that gives 50% inhibition.

Source of the values: US20230031406A1, “COMPOUNDS AND COMPOSITIONS FOR TREATING CONDITIONS ASSOCIATED WITH NLRP ACTIVITY” (Novartis AG, priority 2018, published 2023).
